According to patent US20170127674A1, “MICROPROPAGATION OF ALEXANDRIAN LAUREL (DANAE RACEMOSA L)” (North Carolina A&T State University, priority 2012, published 2017):

Columns and labels:
Format in all cases: in vivo, Danae racemosa L.
[1] = system: Alexandrian laurel seedlings; assay: Culture of germinated seeds in BA-supplemented Woody Plant Medium
Experimental: All cultures described herein were transferred onto fresh media every 4 weeks and incubated in a plant tissue culture grade growth chamber under a 16-h photoperiod and a photo flux density of 37.6±4.8 μmol s^−1m^−2 light per day provided by cool white fluorescent tubes at 23±0.1° C., unless otherwise noted. At 10 weeks, a group of germinated seeds from Example 1 was removed from agar medium containing GA3 and transferred to a supplemented WPM culture further comprising BA (at 1.0, 2.0, or 3.0 mg/L, respectively 4.44, 8.88, or 13.32 μM).

[2] = system: Alexandrian laurel seed; assay: In vitro germination of seeds in agar medium containing GA3
Experimental: Seeds were purchased (Gethsemane Garden and Landscape Services, Inc., Greensboro, N.C.) and disinfected in a 20% bleach solution plus 20 drops Tween-20 per liter for 20 minutes and then rinsed immediately 3 times with sterile purified water.
The disinfected seeds were subsequently transferred to test tubes containing agar medium and 10 ppm GA3. The medium pH was adjusted to 5.8 with 1N KOH or 1 N HCl. The culture medium was sterilized by autoclaving at 121° C. (106 kPa) for 20 minutes.
(§1) All cultures described herein were transferred onto fresh media every 4 weeks and incubated in a plant tissue culture grade growth chamber under a 16-h photoperiod and a photo flux density of 37.6±4.8 μmol s^−1m^−2 light per day provided by cool white fluorescent tubes at 23±0.1° C., unless otherwise noted.
The seeds were prepared according to Materials and Methods above.
The micropropagated plantlets were then potted in soil and transferred to a greenhouse.

[3] = system: Alexandrian laurel seedlings; assay: Culture of germinated seeds in TDZ-supplemented Woody Plant Medium
Experimental: as §1
At 10 weeks, a group of germinated seeds from Example 1 was removed from agar medium containing GA3 and transferred to a supplemented WPM culture further comprising TDZ (at 1.0, 2.0, or 3.0 mg/L, respectively 4.54, 9.08, or 13.62 μM).

c1ccc(CNc2ncnc3nc[nH]c23)cc1 [BA, 6-benzylamino purine]
seedling development ([1]; early growth after the initial seed germination in the presence of BA): balanced seedling development by simultaneously promoting shoot growth and slowing down root growth
shoot and root growth of young seedlings compared to Example 1A ([1]; supplemented WPM with BA at 1.0, 2.0 or 3.0 mg/L, about 4 weeks (FIG. 2)): more balanced shoot and root growth

C=C1C[C@]23C[C@@]1(O)CC[C@H]2[C@@]12C=C[C@H](O)[C@@](C)(C(=O)O1)[C@H]2[C@@H]3C(=O)O [GA3, gibberellic acid]
root and shoot growth of germinated seeds ([2]; agar medium containing GA3, at 10 weeks (FIG. 1)): a lot of root growth and little shoot growth
seed germination ([2]; agar medium with 10 ppm GA3, about 10 weeks): a majority of the seeds had germinated

O=C(Nc1ccccc1)Nc1cnns1 [TDZ, [1-phenyl-3-(1,2,3-thidiazol-5-yl)urea]]
appearance of root growth points ([3]; after 50 days of treatment in TDZ supplemented WPM): root growth points began to turn brown
shoots per seed ([3]; early growth after the initial seed germination in the presence of TDZ): 5-10 shoots per seed
shoot formation ([3]; supplemented WPM with TDZ at 1.0, 2.0 or 3.0 mg/L, about 50 days (FIG. 3)): multiple shoots from each seed
